Experimental data reported in patent publication US20200187502A1, “MICROBIOCIDAL OXADIAZOLE DERIVATIVES” (SYNGENTA PARTICIPATIONS AG, priority 2017, published 2020).

Legend:
[1] = tested on: Puccinia recondita f. Sp. Tritici; test: Fungicidal activity, wheat leaf disc preventative (brown rust); type: in vivo; settings: foliar, 200 ppm in the applied formulation, wheat leaf segments cv. Kanzler, compared to untreated control, 7 to 9 days after application, read-out: disease control
Method in brief: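 Preventative leaf-segment test: spray application of diluted formulated compound on wheat cv. Kanzler, spore inoculation after 1 day. Percent control relative to untreated segments rated 7 to 9 days post-application, with incubation at 19° C, 75% relative humidity, 12 h photoperiod.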

[2] = tested on: Glomerella lacenarium (Colletotrichum lacenarium); test: Fungicidal activity, liquid culture, cucumber preventative (anthracnose); type: cell-based; settings: 20 ppm in the applied formulation, liquid culture in PDB, inhibition of growth measured photometrically 3 to 4 days after application, compared to untreated control, read-out: disease control
Method in brief: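 Test compound in DMSO is placed in a microtiter plate, then potato dextrose broth containing conidia from cryogenic storage is added. Incubation runs at 24° C., and growth inhibition is read photometrically after 3 to 4 days.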

[3] = tested on: Puccinia recondita f. Sp. Tritici; test: Fungicidal activity, wheat leaf disc curative (brown rust); type: in vivo; settings: foliar, 200 ppm in the applied formulation, wheat leaf segments cv. Kanzler, curative (applied 1 day after inoculation), compared to untreated control, 6 to 8 days after application, read-out: disease control
Method in brief: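 Segments of wheat (cultivar Kanzler) sit on agar and are spore-inoculated first; after one day in darkness at 19° C and 75% RH the diluted formulated compound is sprayed on. A 12 h photoperiod follows at the same temperature and humidity before disease is scored against untreated controls.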

Phakopsora pachyrhizi = test: Fungicidal activity, soybean leaf disc preventative (Asian soybean rust); type: in vivo; settings: foliar, 200 ppm in the applied formulation, soybean leaf disks, compared to untreated control, 12 to 14 days after application, read-out: disease control
Experimental: Leaf disks or leaf segments of various plant species are cut from plants grown in a greenhouse. The cut leaf disks or segments are placed in multiwell plates (24-well format) onto water agar. The leaf disks are sprayed with a test solution before (preventative) or after (curative) inoculation. Compounds to be tested are prepared as DMSO solutions (max. 10 mg/ml) which are diluted to the appropriate concentration with 0.025% Tween20 just before spraying. The inoculated leaf disks or segments are incubated under defined conditions (temperature, relative humidity, light, etc.) according to the respective test system. A single evaluation of disease level is carried out 3 to 14 days after inoculation, depending on the pathosystem. Percent disease control relative to the untreated check leaf disks or segments is then calculated.
Soybean leaf disks are placed on water agar in multiwell plates (24-well format) and sprayed with the formulated test compound diluted in water. One day after application leaf discs are inoculated by spraying a spore suspension on the lower leaf surface. After an incubation period in a climate cabinet of 24-36 hours in darkness at 20° C. and 75% rh leaf disc are kept at 20° C. with 12 h light/day and 75% rh. The activity of a compound is assessed as percent disease control compared to untreated when an appropriate level of disease damage appears in untreated check leaf disks (12 to 14 days after application).
The following compounds at 200 ppm in the applied formulation give at least 80% disease control in this test when compared to untreated control leaf disks under the same conditions, which show extensive disease development.

C#CCNC(=O)N(C)Cc1ccc(-c2noc(C(F)(F)F)n2)s1 [Compound 4.81, 1-methyl-3-prop-2-ynyl-1-[[5-[5-(trifluoromethyl)-1,2,4-oxadiazol-3-yl]-2-thienyl]methyl]urea]
≥ 80%: pest or weed control at 200 ppm [1] | inhibition of growth at 20 ppm [2] | pest or weed control at 200 ppm [3] | pest or weed control at 200 ppm (Phakopsora pachyrhizi)

CON(Cc1ccc(-c2noc(C(F)(F)F)n2)s1)C(=O)C1(C)CC1 [Compound 1.15, N-methoxy-1-methyl-N-[[5-[5-(trifluoromethyl)-1,2,4-oxadiazol-3-yl]-2-thienyl]methyl]cyclopropanecarboxamide]
≥ 80%: pest or weed control at 200 ppm [1] | inhibition of growth at 20 ppm [2] | pest or weed control at 200 ppm [3] | pest or weed control at 200 ppm (Phakopsora pachyrhizi)

O=C(NCc1ccc(-c2noc(C(F)(F)F)n2)s1)C1CC1 [Compound 3.1, N-[[5-[5-(trifluoromethyl)-1,2,4-oxadiazol-3-yl]-2-thienyl]methyl]cyclopropanecarboxamide]
≥ 80%: pest or weed control at 200 ppm [1] | inhibition of growth at 20 ppm [2] | pest or weed control at 200 ppm [3] | pest or weed control at 200 ppm (Phakopsora pachyrhizi)

COCCC(=O)N(Cc1ccc(-c2noc(C(F)(F)F)n2)s1)C(C)C [Compound 4.45, N-isopropyl-3-methoxy-N-[[5-[5-(trifluoromethyl)-1,2,4-oxadiazol-3-yl]-2-thienyl]methyl]propanamide]
≥ 80%: pest or weed control at 200 ppm [1] | inhibition of growth at 20 ppm [2] | pest or weed control at 200 ppm [3] | pest or weed control at 200 ppm (Phakopsora pachyrhizi)

CN(Cc1ccc(-c2noc(C(F)(F)F)n2)s1)C(=O)NC1CC1 [Compound 5.6, 3-cyclopropyl-1-methyl-1-[[5-[5-(trifluoromethyl)-1,2,4-oxadiazol-3-yl]-2-thienyl]methyl]urea]
≥ 80%: pest or weed control at 200 ppm [1] | inhibition of growth at 20 ppm [2] | pest or weed control at 200 ppm [3] | pest or weed control at 200 ppm (Phakopsora pachyrhizi)

CN(CC#N)C(=O)N(C)Cc1ccc(-c2noc(C(F)(F)F)n2)s1 [Compound 4.76, 1-(cyanomethyl)-1,3-dimethyl-3-[[5-[5-(trifluoromethyl)-1,2,4-oxadiazol-3-yl]-2-thienyl]methyl]urea]
≥ 80%: pest or weed control at 200 ppm [1] | inhibition of growth at 20 ppm [2] | pest or weed control at 200 ppm [3] | pest or weed control at 200 ppm (Phakopsora pachyrhizi)

CCN(Cc1ccc(-c2noc(C(F)(F)F)n2)s1)C(=O)C1CC1C (stereo not shown) [Compound 5.16, N-ethyl-2-methyl-N-[[5-[5-(trifluoromethyl)-1,2,4-oxadiazol-3-yl]-2-thienyl]methyl]cyclopropanecarboxamide]
≥ 80%: pest or weed control at 200 ppm [1] | inhibition of growth at 20 ppm [2] | pest or weed control at 200 ppm [3] | pest or weed control at 200 ppm (Phakopsora pachyrhizi)

CNC(=O)N(C)Cc1ccc(-c2noc(C(F)(F)F)n2)s1 [Compound 4.1, 1,3-dimethyl-1-[[5-[5-(trifluoromethyl)-1,2,4-oxadiazol-3-yl]-2-thienyl]methyl]urea]
≥ 80%: pest or weed control at 200 ppm [1] | inhibition of growth at 20 ppm [2] | pest or weed control at 200 ppm [3] | pest or weed control at 200 ppm (Phakopsora pachyrhizi)

COCC(=O)N(Cc1ccc(-c2noc(C(F)(F)F)n2)s1)OC [Compound 1.9, N,2-dimethoxy-N-[[5-[5-(trifluoromethyl)-1,2,4-oxadiazol-3-yl]-2-thienyl]methyl]acetamide]
≥ 80%: pest or weed control at 200 ppm [1] | inhibition of growth at 20 ppm [2] | pest or weed control at 200 ppm [3] | pest or weed control at 200 ppm (Phakopsora pachyrhizi)

CN(Cc1ccc(-c2noc(C(F)(F)F)n2)s1)C(=O)C(N)=O [Compound 6.7, N′-methyl-N′-[[5-[5-(trifluoromethyl)-1,2,4-oxadiazol-3-yl]-2-thienyl]methyl]oxamide]
≥ 80%: pest or weed control at 200 ppm [1] | inhibition of growth at 20 ppm [2] | pest or weed control at 200 ppm [3] | pest or weed control at 200 ppm (Phakopsora pachyrhizi)

CNC(=O)N(Cc1ccc(-c2noc(C(F)(F)F)n2)s1)C(C)C [Compound 4.13, 1-isopropyl-3-methyl-1-[[5-[5-(trifluoromethyl)-1,2,4-oxadiazol-3-yl]-2-thienyl]methyl]urea]
≥ 80%: pest or weed control at 200 ppm [1] | inhibition of growth at 20 ppm [2] | pest or weed control at 200 ppm [3] | pest or weed control at 200 ppm (Phakopsora pachyrhizi)

CC(C)N(Cc1ccc(-c2noc(C(F)(F)F)n2)s1)C(=O)C1CC1 [Compound 5.5, N-isopropyl-N-[[5-[5-(trifluoromethyl)-1,2,4-oxadiazol-3-yl]-2-thienyl]methyl]cyclopropanecarboxamide]
≥ 80%: pest or weed control at 200 ppm [1] | inhibition of growth at 20 ppm [2] | pest or weed control at 200 ppm [3] | pest or weed control at 200 ppm (Phakopsora pachyrhizi)

CON(Cc1ccc(-c2noc(C(F)(F)F)n2)s1)C(=O)C1CC1 [Compound 1.4, N-methoxy-N-[[5-[5-(trifluoromethyl)-1,2,4-oxadiazol-3-yl]-2-thienyl]methyl]cyclopropanecarboxamide]
≥ 80%: pest or weed control at 200 ppm [1] | inhibition of growth at 20 ppm [2] | pest or weed control at 200 ppm [3] | pest or weed control at 200 ppm (Phakopsora pachyrhizi)

CCN(Cc1ccc(-c2noc(C(F)(F)F)n2)s1)C(=O)C(C)C [Compound 4.7, N-ethyl-2-methyl-N-[[5-[5-(trifluoromethyl)-1,2,4-oxadiazol-3-yl]-2-thienyl]methyl]propanamide]
≥ 80%: pest or weed control at 200 ppm [1] | inhibition of growth at 20 ppm [2] | pest or weed control at 200 ppm [3] | pest or weed control at 200 ppm (Phakopsora pachyrhizi)

CCCC(=O)N(Cc1ccc(-c2noc(C(F)(F)F)n2)s1)C1CC1 [Compound 4.54, N-cyclopropyl-N-[[5-[5-(trifluoromethyl)-1,2,4-oxadiazol-3-yl]-2-thienyl]methyl]butanamide]
≥ 80%: pest or weed control at 200 ppm [1] | inhibition of growth at 20 ppm [2] | pest or weed control at 200 ppm [3] | pest or weed control at 200 ppm (Phakopsora pachyrhizi)

COCCC(=O)NCc1ccc(-c2noc(C(F)(F)F)n2)s1 [Compound 2.4, 3-methoxy-N-[[5-[5-(trifluoromethyl)-1,2,4-oxadiazol-3-yl]-2-thienyl]methyl]propanamide]
≥ 80%: pest or weed control at 200 ppm [1] | inhibition of growth at 20 ppm [2] | pest or weed control at 200 ppm [3] | pest or weed control at 200 ppm (Phakopsora pachyrhizi)

CC1(C(=O)NCc2ccc(-c3noc(C(F)(F)F)n3)s2)COC1 [Compound 3.7, 3-methyl-N-[[5-[5-(trifluoromethyl)-1,2,4-oxadiazol-3-yl]-2-thienyl]methyl]oxetane-3-carboxamide]
≥ 80%: pest or weed control at 200 ppm [1] | inhibition of growth at 20 ppm [2] | pest or weed control at 200 ppm [3] | pest or weed control at 200 ppm (Phakopsora pachyrhizi)

CCN(Cc1ccc(-c2noc(C(F)(F)F)n2)s1)C(=O)NCCOC [Compound 4.72, 1-ethyl-3-(2-methoxyethyl)-1-[[5-[5-(trifluoromethyl)-1,2,4-oxadiazol-3-yl]-2-thienyl]methyl]urea]
≥ 80%: pest or weed control at 200 ppm [1] | inhibition of growth at 20 ppm [2] | pest or weed control at 200 ppm [3] | pest or weed control at 200 ppm (Phakopsora pachyrhizi)

O=C(NC1CC1)N(Cc1ccc(-c2noc(C(F)(F)F)n2)s1)C1CC1 [Compound 5.62, 1,3-dicyclopropyl-1-[[5-[5-(trifluoromethyl)-1,2,4-oxadiazol-3-yl]-2-thienyl]methyl]urea]
≥ 80%: pest or weed control at 200 ppm [1] | inhibition of growth at 20 ppm [2] | pest or weed control at 200 ppm [3] | pest or weed control at 200 ppm (Phakopsora pachyrhizi)

CCNC(=O)N(Cc1ccc(-c2noc(C(F)(F)F)n2)s1)OC [Compound 1.51, 3-ethyl-1-methoxy-1-[[5-[5-(trifluoromethyl)-1,2,4-oxadiazol-3-yl]-2-thienyl]methyl]urea]
≥ 80%: pest or weed control at 200 ppm [1] | inhibition of growth at 20 ppm [2] | pest or weed control at 200 ppm [3] | pest or weed control at 200 ppm (Phakopsora pachyrhizi)

CCN(Cc1ccc(-c2noc(C(F)(F)F)n2)s1)C(=O)C(N)=O [Compound 6.5, N′-ethyl-N′-[[5-[5-(trifluoromethyl)-1,2,4-oxadiazol-3-yl]-2-thienyl]methyl]oxamide]
≥ 80%: pest or weed control at 200 ppm [1] | inhibition of growth at 20 ppm [2] | pest or weed control at 200 ppm [3] | pest or weed control at 200 ppm (Phakopsora pachyrhizi)

COC(C)C(=O)N(Cc1ccc(-c2noc(C(F)(F)F)n2)s1)OC (stereo not shown) [Compound 1.1, N,2-dimethoxy-N-[[5-[5-(trifluoromethyl)-1,2,4-oxadiazol-3-yl]-2-thienyl]methyl]propanamide]
≥ 80%: pest or weed control at 200 ppm [1] | inhibition of growth at 20 ppm [2] | pest or weed control at 200 ppm [3] | pest or weed control at 200 ppm (Phakopsora pachyrhizi)
